The text below walks through data of publication PMC8424217 (The Journal of Biological Chemistry, 2021).

Peptide text beside a SMILES is read from it. * marks the point of attachment. Palmitoyl = CCCCCCCCCCCCCCCC(=O)*

The target in one series is T1, rat thoracic aorta rings (Rattus norvegicus, UniProt P49684).
T1 sequence (P49684 1-386): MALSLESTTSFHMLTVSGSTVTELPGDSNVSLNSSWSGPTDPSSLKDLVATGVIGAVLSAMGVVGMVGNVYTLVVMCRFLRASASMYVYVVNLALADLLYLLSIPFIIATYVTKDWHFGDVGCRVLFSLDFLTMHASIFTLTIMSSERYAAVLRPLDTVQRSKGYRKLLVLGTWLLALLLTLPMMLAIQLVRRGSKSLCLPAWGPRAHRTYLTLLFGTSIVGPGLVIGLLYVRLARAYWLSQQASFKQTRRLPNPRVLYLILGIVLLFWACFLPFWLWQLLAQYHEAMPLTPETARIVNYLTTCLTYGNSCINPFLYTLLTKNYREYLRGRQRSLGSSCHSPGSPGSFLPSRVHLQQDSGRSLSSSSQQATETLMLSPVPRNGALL
As to the kind of experiment: Modulation of URP-mediated rat aortic ring contraction. Conditions: pepducin 10^−6 M 30 min prior to URP, percentage of KCl (40 mM) contraction divided by tissue response to URP (10^−6 M), mean ± SEM, n = 5, read-out: URP Emax after pepducin pretreatment. Here is the method: Each replicate (n) was conducted on tissue obtained from at least three different animals. Data represent mean ± SEM.
Adult male Sprague-Dawley rats (Charles-River) weighing 250–300 g were housed in cages under controlled illumination (12:12 h light–dark cycle), humidity, and temperature (21–23 °C) and had free access to tap water and rat chow. All experimental procedures were performed in accordance with regulations and ethical guidelines from the Canadian Council for the Care of Laboratory Animals and received approvals of the institutional animal care and use committee of the Institut National de la Recherche Scientifique—Centre Armand-Frappier Santé Biotechnologie. As previously described ([17], [18]), the thoracic aorta was cleared of surrounding tissue and then excised from the aortic arch to the diaphragm. Conjunctive tissues were next removed from the thoracic aorta and the vessels were divided into five rings of 4 mm. The endothelium of each aortic ring was removed by gently rubbing the vessel intimal surface. Aortic rings were then placed in a 5 ml organ bath filled with oxygenated normal Krebs–Henseleit buffer. Eighty microliters of a 2.5 M potassium chloride solution (40 mM final concentration) was used to evaluate maximal contractile responses of each vessel. […] Cumulative concentration–response curves to synthetic peptides were obtained by increasing the concentration of each peptide in the remaining organ chambers (10^−11–10^−5 M).

Series [1] is described as follows: Solution NMR conformational analysis in DPC micelles. To be noted: pH 5.5, 25 °C, restrained MD calculations. The class given is physicochemical. Here is the method: Samples for NMR spectroscopy were prepared by dissolving the appropriate amount of peptide in 0.54 ml of ^1H2O (pH 5.5), 0.06 ml of ^2H2O to obtain a final DPC-d38 concentration of 2 mM and 200 mM. NMR spectra were recorded on a Varian INOVA 700 MHz spectrometer equipped with a z-gradient 5 mm triple-resonance probe head. All spectra were recorded at a temperature of 25 °C and were calibrated relative to TSP (0.00 ppm) as internal standard. One-dimensional (1D) NMR spectra were recorded in the Fourier mode with quadrature detection. The water signal was suppressed by gradient echo ([70]). Two dimensional (2D) DQF-COSY ([71], [72]), TOCSY ([73]), and NOESY ([74]) spectra were recorded in the phase-sensitive mode as described ([75]). Data block sizes were 2048 addresses in t2 and 512 equidistant t1 values. […] The qualitative and quantitative analyses of DQF-COSY, TOCSY, and NOESY spectra were obtained using the interactive program package XEASY ([76]). Complete ^1H NMR chemical shift assignments were effectively achieved for hUT-Pep2 and [Trp^1, Leu^2]hUT-Pep3 according to the Wüthrich procedure ([77]) via the usual systematic application of DQF-COSY, TOCSY, and NOESY experiments with the support of the XEASY software package (Tables S1 and S3). ^3JαN coupling constants were measured by 1D proton and DQF-COSY spectra. […]

For orientation: Emax means the greatest response seen or fitted, relative to the assay's reference.

For `CCCCCCCCCCCCCCCC(=O)N[C@@H](Cc1c[nH]c2ccccc12)C(=O)N[C@@H](CC(C)C)C(=O)N[C@@H](CO)C(=O)N[C@@H](CCC(N)=O)C(=O)N[C@@H](CCCNC(=N)N)C(=O)N[C@@H](C)C(=O)N[C@@H](CO)C(=O)N[C@@H](Cc1ccccc1)C(=O)N[C@@H](CCCCN)C(=O)N[C@@H](CCCNC(=N)N)C(=O)N[C@@H](C)C(=O)N[C@@H](CCCNC(=N)N)C(=O)N[C@@H](CCCNC(=N)N)C(N)=O` [[Trp^1, Leu^2]hUT-Pep3] (Palmitoyl-WLSQRASFKRARR-NH2), the maximal response (Emax) at rat thoracic aorta rings was found to be 16 ± 2%. Also, in series [1], the “conformation by NMR” value is “high tendency of [Trp^1, Leu^2]hUT-Pep3 to fold into a helix”.

In the case of `CCCCCCCCCCCCCCCC(=O)N[C@@H](CCCNC(=N)N)C(=O)N1CCC[C@H]1C(=O)N[C@@H](CC(C)C)C(=O)N[C@@H](CC(=O)O)C(=O)N[C@H](C(=O)N[C@H](C(=O)N[C@@H](CCC(N)=O)C(=O)N[C@@H](CCCNC(=N)N)C(=O)N1CCC[C@H]1C(=O)N[C@@H](CCCCN)C(=O)NCC(=O)N[C@@H](Cc1ccc(O)cc1)C(N)=O)C(C)C)[C@@H](C)O` [hUT-Pep2] (Palmitoyl-RPLDTVQRPKGY-NH2), the maximal response (Emax) at rat thoracic aorta rings worked out at 76 ± 8%. The “conformation by NMR” value in series [1] was “two type I β-turns along residues 1–4 and 3–6 and three distorted (type IV) β-turns along residues 4–7, 5–8, and 6–9”.
